Measurements published in US20240393319A1, “FLUORESCENT SENSORS AND METHODS OF MAKING AND USING” (Howard Hughes Medical Institute, priority 2023, published 2024).

Experiments:
HaloTag-JF635 = assay: Titration of HaloTag-JF635 with ATP; format: biochemical; conditions: FIG. 8B
[1] = target: T1, iATPSnFR2 (L1-VLVG, L2-ICV, A95A, A119L; cpSFGFP inserted in epsilon subunit of Bacillus subtilis PS3 F0-F1 ATPase; SEQ ID NO: 1 / SEQ ID NO: 13) (Bacillus sp. PS3, UniProt P07678); assay: Fluorescence response to ATP; format: biochemical
T1 construct: QD to VL at junction, L1-VLVG, L2-ICV; E. coli BL21(DE3)pLysS, Ni-NTA; HaloTag-JFX650 fusion possible
T1 sequence (P07678 whole entry, stated change not applied, the tested form may be a part): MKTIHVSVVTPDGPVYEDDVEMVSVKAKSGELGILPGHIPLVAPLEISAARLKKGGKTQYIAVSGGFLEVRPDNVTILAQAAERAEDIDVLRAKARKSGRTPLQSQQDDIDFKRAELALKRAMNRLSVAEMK
Method: (grey) and 37° C. (black). Error bars are s.d. of three technical replicates. Fluorescence was measured in a Cytation 5 plate reader, which has relatively rapid heating.

[2] = target: T2, iATPSnFR2.A95K.HaloTag-JFX650 (L1-VLVG, L2-ICV); cpSFGFP inserted in epsilon subunit of Bacillus subtilis PS3 F0-F1 ATPase; mutation A95K; SEQ ID NO: 5, without (Bacillus sp., UniProt P07678, A95K/DELINS96-108[…]/F67N/L78Y/N74K/V42K); assay: ATP/nucleotide titration, binding curve fits; conditions: stopped flow
T2 construct: polyhistidine tag (bacterial expression vector); made in house; host or cells: E. coli BL21 (DE3) pLysS
T2 sequence (P07678 other isoform, or with tags, fused parts or gaps V42K/F67N/N74K/L78Y): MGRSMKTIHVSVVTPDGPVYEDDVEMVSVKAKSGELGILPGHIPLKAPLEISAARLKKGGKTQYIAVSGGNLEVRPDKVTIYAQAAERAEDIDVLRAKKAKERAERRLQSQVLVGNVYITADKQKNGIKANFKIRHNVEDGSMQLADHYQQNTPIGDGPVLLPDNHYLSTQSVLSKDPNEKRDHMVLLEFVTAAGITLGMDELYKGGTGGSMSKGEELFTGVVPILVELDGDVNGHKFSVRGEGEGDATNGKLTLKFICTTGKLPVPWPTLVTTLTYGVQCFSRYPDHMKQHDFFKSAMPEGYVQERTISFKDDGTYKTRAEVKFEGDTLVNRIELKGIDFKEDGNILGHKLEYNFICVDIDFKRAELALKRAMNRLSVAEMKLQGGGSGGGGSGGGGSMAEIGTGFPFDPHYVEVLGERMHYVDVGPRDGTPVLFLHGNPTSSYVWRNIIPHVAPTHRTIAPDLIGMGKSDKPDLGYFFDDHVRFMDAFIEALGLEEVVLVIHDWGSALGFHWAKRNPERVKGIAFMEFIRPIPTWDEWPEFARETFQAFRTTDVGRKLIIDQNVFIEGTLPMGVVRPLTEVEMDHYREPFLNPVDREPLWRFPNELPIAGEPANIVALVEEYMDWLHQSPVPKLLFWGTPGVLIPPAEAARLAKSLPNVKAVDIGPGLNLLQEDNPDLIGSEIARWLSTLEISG
Excerpt: (§1) (1A) Artistic rendering of iATPSnFR2.HaloTag made with PyMol. The N-terminal fragment (residues 1-109) of the epsilon subunit of ATPase (orange, based on 2E5Y.PDB) is fused to cpSFGFP (green). The C-terminus of cpSFGFP is fused to the residual ATP-binding helix (residues 110-129) of the epsilon subunit (pink), which itself is fused to HaloTag (cyan). “Linkers” are shown as sticks in yellow. […] HaloTag fluorophore is shown as sticks in red. […] (1C-1E) Ratio of green (iATPSnFR2) to red (HaloTag-JFX650) fluorescence in fibroblasts transfected with three affinity variants of iATPSnFR2-HaloTag. […] Cells were incubated for 21 minutes in buffer containing 10 mM glucose, and then switched to buffer containing 10 mM 2-deoxyglucose. (1C) Rho° cells. (1D) Parental LMTK cell line. (1E) Parental cell line treated with both 2-deoxyglucose and oligomycin.
(§2) ATP (black), CTP (cyan), GTP (grey), TTP (purple).
(§3) Purified protein was mixed with 1.1 molar equivalents of JFX650 HaloTag Ligand and incubated at room temperature for 1 hour and then at 4° C. overnight. Excess HaloTag Ligand was removed by gel filtration on a PD-10 column (GE Life Sciences) and re-concentrated by ultrafiltration.

[3] = target: T3, iATPSnFR2.S29W.A95K.HaloTag-JFX650 (L1-VLVG, L2-ICV); cpSFGFP inserted in epsilon subunit of Bacillus subtilis PS3 F0-F1 ATPase; mutations A95K, S29W; SEQ ID NO: (Bacillus sp., UniProt P07678, A95K/DELINS96-108[…]/F67N/L78Y/N74K/S29W/V42K); assay: ATP/nucleotide titration, binding curve fits; conditions: stopped flow
T3 construct: polyhistidine tag (bacterial expression vector); made in house; host or cells: E. coli BL21 (DE3) pLysS
T3 sequence (P07678 other isoform, or with tags, fused parts or gaps S29W/V42K/F67N/N74K/L78Y): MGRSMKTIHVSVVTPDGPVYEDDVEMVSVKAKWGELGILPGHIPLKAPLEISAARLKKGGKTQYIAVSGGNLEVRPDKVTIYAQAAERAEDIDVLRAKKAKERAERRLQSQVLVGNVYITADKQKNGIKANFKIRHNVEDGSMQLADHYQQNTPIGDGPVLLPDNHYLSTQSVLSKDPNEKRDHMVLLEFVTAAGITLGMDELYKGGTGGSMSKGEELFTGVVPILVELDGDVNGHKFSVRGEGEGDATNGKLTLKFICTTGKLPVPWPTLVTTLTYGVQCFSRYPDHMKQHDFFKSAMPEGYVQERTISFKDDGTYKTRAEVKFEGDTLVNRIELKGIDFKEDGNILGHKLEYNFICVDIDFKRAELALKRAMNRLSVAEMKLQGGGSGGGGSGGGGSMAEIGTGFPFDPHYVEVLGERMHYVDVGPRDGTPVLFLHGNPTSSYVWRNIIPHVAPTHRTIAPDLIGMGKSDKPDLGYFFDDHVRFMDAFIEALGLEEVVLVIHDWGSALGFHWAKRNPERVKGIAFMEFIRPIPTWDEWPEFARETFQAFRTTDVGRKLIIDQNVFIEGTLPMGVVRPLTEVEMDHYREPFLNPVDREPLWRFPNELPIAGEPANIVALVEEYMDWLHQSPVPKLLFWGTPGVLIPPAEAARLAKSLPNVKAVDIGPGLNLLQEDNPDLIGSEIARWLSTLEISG
Excerpt: as §1, §2, §3

[4] = test system: iATPSnFR2.HaloTag-JFX650, three variants S29W.A95K, A95K and A95A.A119L; assay: Stopped-flow kinetics of ATP binding; format: biochemical, Bacillus subtilis PS3; conditions: ATP 123-10000 μM
Method: Panels are the sensor with a C-terminal fusion to HaloTag-JFX650. […] Fluorescence data collected on an Applied Photophysics SX-20 stopped-flow apparatus with 490 nm LED excitation and 525 nm long pass filter. Data points are average of 5 technical replicates.
Final concentration of protein was thus 0.1 μM.

MaLion = conditions: cited from earlier work
ChemoG-ATPSiR = conditions: read-out: affinity for ATP; cited from earlier work

Nc1ncnc2c1ncn2[C@@H]1O[C@H](COP(=O)(O)OP(=O)(O)OP(=O)(O)O)[C@@H](O)[C@H]1O [ATP]
sensitivity to ATP (HaloTag-JF635): sensitive to ATP, albeit with low ΔF/F | ΔF/F in response to saturating ATP [1]: ~12 | rate of ATP binding compared with A95A.A119L [2]: bind ATP faster than the A95A.A119L variant | rate of ATP binding compared with A95A.A119L [3]: bind ATP faster than the A95A.A119L variant | time to bind ATP [4]: within a one or two seconds | increase in fluorescence upon saturation with ATP (MaLion): ~5 fold | Kd (ChemoG-ATPSiR): ~2000 µM
